Test results: US10934302B1, “SHP2 phosphatase inhibitors and methods of use thereof” (Relay Therapeutics, Inc., priority 2018, dated 2021)

target: SHP2 (Homo sapiens (Human), UniProt Q06124); experiment: SHP2 allosteric inhibition assay (DiFMUP prompt fluorescence); format: biochemical; conditions: 0.25 nM SHP2 activated with 0.5 μM peptide IRS1_pY1172(dPEG8)pY1222; substrate DiFMUP

Compound	IC50 [nM]
CC(=O)N1CCN(c2n[nH]c3nc(N4CCC5(CC4)Cc4ccccc4[C@@H]5N)cnc23)c2ccccc21 [Example 1, 1-(4-{6-[(3R)-3-amino-1,3-dihydrospiro[indene-2,4′-piperidin]-1′-yl]-1H-pyrazolo[3,4-b]pyrazin-3-yl}-1,2,3,4-tetrahydroquinoxalin-1-yl)ethan-1-one]	≤ 50
CC(=O)N1CCN(c2n[nH]c3nc(N4CCC5(CC4)Cc4ccccc4[C@H]5N)cnc23)c2ccccc21 [Example 2, 1-(4-{6-[(3S)-3-amino-1,3-dihydrospiro[indene-2,4′-piperidin]-1′-yl]-1H-pyrazolo[3,4-b]pyrazin-3-yl}-1,2,3,4-tetrahydroquinoxalin-1-yl)ethan-1-one]	≤ 50
N[C@H]1c2ccccc2CC12CCN(c1cnc3c(N4CCCc5nc(-c6ccn[nH]6)ccc54)n[nH]c3n1)CC2 [Example 3]	≤ 50
N[C@@H]1c2ccccc2CC12CCN(c1cnc3c(N4CCCc5nc(-c6ccn[nH]6)ccc54)n[nH]c3n1)CC2 [Example 4]	≤ 50
NC1C2CC2CC12CCN(c1cnc3c(N4CCCc5ncccc54)n[nH]c3n1)CC2 (stereo not shown) [Example 7, 1′-(3-(3,4-dihydro-1,5-naphthyridin-1(2H)-yl)-1H-pyrazolo[3,4-b]pyrazin-6-yl)spiro[bicyclo[3.1.0]hexane-3,4′-piperidin]-2-amine]	≤ 50
N[C@H]1c2cccc(F)c2CC12CCN(c1cnc3c(N4CCCc5ncccc54)n[nH]c3n1)CC2 [Example 16]	1000 to 10000
Cc1nc(N2CCC3(CC2)Cc2ccccc2[C@H]3N)c(CO)nc1-c1cccc(Cl)c1Cl [Example 20, (S)-(3-(1-amino-1,3-dihydrospiro[indene-2,4′-piperidin]-1′-yl)-6-(2,3-dichlorophenyl)-5-methylpyrazin-2-yl)methanol]	≤ 50
Nc1nc(N2CCC3(CC2)Cc2ccccc2[C@@H]3N)cnc1-c1cccc(Cl)c1Cl [Example 21, (3R)-1′-[6-amino-5-(2,3-dichlorophenyl)pyrazin-2-yl]-1,3-dihydrospiro[indene-2,4′-piperidin]-3-amine]	≤ 50
Nc1nc(N2CCC3(CC2)Cc2ccccc2[C@H]3N)cnc1-c1cccc(Cl)c1Cl [Example 22, (3S)-1′-[6-amino-5-(2,3-dichlorophenyl)pyrazin-2-yl]-1,3-dihydrospiro[indene-2,4′-piperidin]-3-amine]	≤ 50
N[C@@H]1c2cccc(F)c2CC12CCN(c1cnc3cn[nH]c3n1)CC2 [Example 23]	1000 to 10000
N[C@H]1c2cccc(F)c2CC12CCN(c1cnc3cn[nH]c3n1)CC2 [Example 24]	≤ 50
CN(C)C(=O)c1ccc2c(c1)[C@@H](N)C1(CCN(c3cnc4c(N5CCCc6ncccc65)n[nH]c4n3)CC1)C2 [Example 27]	≤ 50
CN(C)C(=O)c1ccc2c(c1)[C@H](N)C1(CCN(c3cnc4c(N5CCCc6ncccc65)n[nH]c4n3)CC1)C2 [Example 28]	≤ 50
CO[C@H]1C[C@@H](N2CCN(c3n[nH]c4nc(N5CCC6(CC5)Cc5ccccc5C6N)cnc34)c3ccc(C#N)cc32)C1 (stereo partly shown) [Example 32]	≤ 50
CO[C@H]1C[C@H](N2CCN(c3n[nH]c4nc(N5CCC6(CC5)Cc5ccccc5C6N)cnc34)c3ccc(C#N)cc32)C1 (stereo partly shown) [Example 33]	≤ 50
N#Cc1ccc2c(c1)N([C@H]1C[C@@H](O)C1)CCN2c1n[nH]c2nc(N3CCC4(CC3)Cc3ccccc3C4N)cnc12 (stereo partly shown) [Example 34]	≤ 50
N#Cc1ccc2c(c1)N([C@H]1C[C@H](O)C1)CCN2c1n[nH]c2nc(N3CCC4(CC3)Cc3ccccc3C4N)cnc12 (stereo partly shown) [Example 35]	≤ 50
N[C@@H]1c2ccccc2CC12CCN(c1cnc3c(N4CCCc5nc(-c6ncco6)ccc54)n[nH]c3n1)CC2 [Example 37]	≤ 50
N#Cc1ccc2c(c1)N(C1(C#N)CC1)CCN2c1n[nH]c2nc(N3CCC4(CC3)Cc3ccccc3[C@H]4N)cnc12 [Example 39]	≤ 50

Now from value to compound:

IC50 [nM]	Compound
50 to 1000	C[C@@H](C#N)N(C)c1n[nH]c2nc(N3CCC4(CC3)Cc3ccccc3[C@H]4N)cnc12 (racemic) [Example 150, (S)-2-((6-((S)-1-amino-1,3-dihydrospiro[indene-2,4′-piperidin]-1′-yl)-1H-pyrazolo[3,4-b]pyrazin-3-yl)(methyl)amino)propanenitrile]
≤ 50	C[C@@H](C(N)=O)N(C)c1n[nH]c2nc(N3CCC4(CC3)Cc3ccccc3[C@H]4N)cnc12 (racemic) [Example 151, (2S)-2-({6-[(3S)-3-amino-1,3-dihydrospiro[indene-2,4′-piperidin]-1′-yl]-1H-pyrazolo[3,4-b]pyrazin-3-yl}(methyl)amino)propanamide]
> 10000	N[C@@H]1c2ccccc2CC12CCN(c1cnc(N3CCC[C@H]3c3ccccc3)cn1)CC2 (racemic) [Example 165, (3S)-1′-{5-[(2S)-2-phenylpyrrolidin-1-yl]pyrazin-2-yl}-1,3-dihydrospiro[indene-2,4′-piperidin]-3-amine]
≤ 50	N[C@@H]1c2ccccc2CC12CCN(c1cnc(N3CCCC[C@@H]3c3ccccc3)cn1)CC2 (racemic) [Example 166, (S)-1′-(5-((R)-2-phenylpiperidin-1-yl)pyrazin-2-yl)-1,3-dihydrospiro[indene-2,4′-piperidin]-1-amine]
> 10000	N[C@@H]1c2ccccc2CC12CCN(c1cnc(N3CCCC[C@H]3c3ccccc3)cn1)CC2 (racemic) [Example 176]
≤ 50	Cn1c(N2CCC3(CC2)Cc2ccccc2[C@H]3N)nc2[nH]nc(N3CCCCC3)c2c1=O (racemic) [Example 200]
≤ 50	Cc1cnc(CO)c(N2CCC3(CC2)Cc2ccccc2[C@@H]3N)n1 (single isomer, unassigned) [Example 121]
≤ 50	Cc1cnc(CO)c(N2CCC3(CC2)Cc2ccccc2[C@H]3N)n1 (single isomer, unassigned) [Example 122]
≤ 50	Nc1nccc(Oc2n[nH]c3nc(N4CCC5(CC4)Cc4ccccc4[C@@H]5N)cnc23)c1Cl (single isomer, unassigned) [Example 136]
≤ 50	Nc1nccc(Oc2n[nH]c3nc(N4CCC5(CC4)Cc4ccccc4[C@H]5N)cnc23)c1Cl (single isomer, unassigned) [Example 137]
≤ 50	C[C@@H](O)c1nc2c(N3CCCc4ncccc43)n[nH]c2nc1N1CCC2(CC1)Cc1ccccc1[C@H]2N (single isomer, unassigned) [Example 141]
≤ 50	C[C@H](O)c1nc2c(N3CCCc4ncccc43)n[nH]c2nc1N1CCC2(CC1)Cc1ccccc1[C@H]2N (single isomer, unassigned) [Example 142]
1000 to 10000	N[C@H]1c2ccccc2C[C@@]12CC=C(c1cnc3c(N4CCCc5ncccc54)n[nH]c3n1)CC2 (single isomer, unassigned) [Example 172]
> 10000	N[C@@H]1c2ccccc2C[C@@]12CC=C(c1cnc3c(N4CCCc5ncccc54)n[nH]c3n1)CC2 (single isomer, unassigned) [Example 173]
> 10000	N[C@H]1c2ccccc2C[C@]12CC[C@H](c1cnc3c(N4CCCc5ncccc54)n[nH]c3n1)CC2 (single isomer, unassigned) [Example 188, (1s, 1′R, 4S)-4-(3-(3,4-dihydro-1,5-naphthyridin-1(2H)-yl)-1H-pyrazolo[3,4-b]pyrazin-6-yl)-1′,3′-dihydrospiro[cyclohexane-1,2′-inden]-1′-amine]
≤ 50	N[C@@H]1c2ccccc2CC12CCN(c1cnc(S[C@H]3CCOC3)cn1)CC2 (single isomer, unassigned) [Example 234]
≤ 50	N[C@H]1c2ccccc2C[C@]12CC[C@H](c1cnc(Sc3ccnc(Cl)c3Cl)cn1)CC2 (single isomer, unassigned) [Example 276, (1s, 3′R, 4S)-4-{5-[(2,3-dichloropyridin-4-yl)sulfanyl]pyrazin-2-yl}-1′,3′-dihydrospiro[cyclohexane-1,2′-inden]-3′-amine]
50 to 1000	N[C@H]1c2ccccc2C[C@]12CC[C@@H](c1cnc(Sc3ccnc(Cl)c3Cl)cn1)CC2 (single isomer, unassigned) [Example 277, (1r, 4r)-4-(5-((2,3-dichloropyridin-4-yl)thio)pyrazin-2-yl)-1′,3′-dihydrospiro[cyclohexane-1,2′-inden]-1′-amine]
50 to 1000	NC1c2ccccc2C[C@]12CC[C@H](c1ccc(SCC3CC3)nc1)CC2 (single isomer, unassigned) [Example 281, (1s, 3'S, 4R)-4-{6-[(cyclopropylmethyl)sulfanyl]pyridin-3-yl}-1′,3′-dihydrospiro[cyclohexane-1,2′-inden]-3′-amine]
≤ 50	NC1c2ccccc2C[C@]12CC[C@H](c1ccc(SCC3CC3)nc1)CC2 (single isomer, unassigned) [Example 282, (1s, 3′R, 4S)-4-{6-[(cyclopropylmethyl)sulfanyl]pyridin-3-yl}-1′,3′-dihydrospiro[cyclohexane-1,2′-inden]-3′-amine]
> 10000	NC1c2ccccc2CC12CCC(c1cnc(SCC3CC3)cn1)CC2 (single isomer, unassigned) [Example 283, (1s, 3'S, 4R)-4-{5-[(cyclopropylmethyl)sulfanyl]pyrazin-2-yl}-1′,3′-dihydrospiro[cyclohexane-1,2′-inden]-3′-amine]
> 10000	C[C@@H](C(=O)N1CCC2(CC1)Cc1ccccc1[C@H]2N)c1ccc(F)cc1 (single isomer, unassigned) [Example 291]
≤ 50	N[C@@H]1c2ccccc2CC12CCN(c1cnc(N3CCCC3c3ccccc3)cn1)CC2 (stereo in doubt) [Example 164, (3S)-1′-{5-[(2S)-2-phenylpyrrolidin-1-yl]pyrazin-2-yl}-1,3-dihydrospiro[indene-2,4′-piperidin]-3-amine]
> 10000	Cn1cc(-c2ccc3c(n2)CCCN3c2n[nH]c3nc(N4CCC5(CC4)Cc4ccc(F)cc4[C@H]5N)cnc23)cn1 [Example 40]
≤ 50	CS(=O)(=O)c1cccc2c1CCCN2c1n[nH]c2nc(N3CCC4(CC3)Cc3ccc(F)cc3[C@H]4N)cnc12 [Example 41]
≤ 50	Cn1cc(-c2ccc3c(n2)CCCN3c2n[nH]c3nc(N4CCC5(CC4)Cc4c(F)cccc4[C@H]5N)cnc23)cn1 [Example 42]
≤ 50	CN1CCN(c2n[nH]c3nc(N4CCC5(CC4)Cc4ccccc4[C@H]5N)cnc23)c2ccc(C#N)cc21 [Example 43]
